Results as given in patent US5656603A (Loyola University of Chicago, priority 1995, dated 1997).

Biological target: T1, aminopeptidase M (EC 3.4.11.2) (Sus scrofa, UniProt P15145)
T1 construct: Purified porcine kidney prolidase and purified porcine kidney aminopeptidase M was obtained from Sigma; purchased Sigma (St. Louis, Mo.); host or cells: porcine kidney
T1 sequence (P15145 1-963): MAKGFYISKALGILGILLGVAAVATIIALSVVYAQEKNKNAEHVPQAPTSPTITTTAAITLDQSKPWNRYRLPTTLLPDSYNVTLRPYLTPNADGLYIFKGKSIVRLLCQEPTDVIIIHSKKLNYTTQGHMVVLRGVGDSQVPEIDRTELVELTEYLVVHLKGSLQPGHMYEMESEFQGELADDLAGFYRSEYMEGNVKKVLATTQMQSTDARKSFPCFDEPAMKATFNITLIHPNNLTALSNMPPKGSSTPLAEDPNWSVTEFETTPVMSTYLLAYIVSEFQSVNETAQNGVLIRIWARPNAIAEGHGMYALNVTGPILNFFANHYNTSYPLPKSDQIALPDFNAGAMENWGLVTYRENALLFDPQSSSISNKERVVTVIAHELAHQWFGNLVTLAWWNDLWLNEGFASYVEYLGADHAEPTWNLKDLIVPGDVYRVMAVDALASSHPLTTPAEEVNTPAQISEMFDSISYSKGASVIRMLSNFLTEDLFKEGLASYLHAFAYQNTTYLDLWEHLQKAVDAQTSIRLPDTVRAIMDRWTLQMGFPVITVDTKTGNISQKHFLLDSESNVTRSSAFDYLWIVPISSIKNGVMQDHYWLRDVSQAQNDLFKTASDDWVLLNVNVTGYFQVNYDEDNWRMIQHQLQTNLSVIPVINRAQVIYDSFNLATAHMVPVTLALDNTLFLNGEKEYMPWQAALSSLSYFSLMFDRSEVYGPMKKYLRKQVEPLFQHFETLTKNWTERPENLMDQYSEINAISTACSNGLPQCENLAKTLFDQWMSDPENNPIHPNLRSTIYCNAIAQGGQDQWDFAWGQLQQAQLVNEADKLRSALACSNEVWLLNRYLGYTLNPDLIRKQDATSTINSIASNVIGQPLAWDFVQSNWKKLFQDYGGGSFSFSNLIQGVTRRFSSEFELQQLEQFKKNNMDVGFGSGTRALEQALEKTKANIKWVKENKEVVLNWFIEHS
Test: Specificity of apstatin: aminopeptidase M
Format: biochemical
Details: purified, porcine kidney; Ala-β-NA, pH 6.8, FLUO
Procedure: Specificity of Apstatin--Apstatin was assayed for its ability to inhibit several other peptidases. […] Unless otherwise indicated, the source of each enzyme activity was a detergent extract of bovine lung prepared as described in (12-13). Activities were determined by a modification of the fluorescent assay described above (indicated by "FLUO") or by HPLC separation and quantitation of reaction products using the method described in (12) (method "HPLC-1") or the method described below (method "HPLC-2"). […]

**Q.** Which IC50 does the source give for `C[C@H](NC(=O)[C@@H]1CCCN1C(=O)[C@@H]1CCCN1C(=O)[C@@H](O)[C@H](N)Cc1ccccc1)C(N)=O` [apstatin, N-[(2S, 3R)-3-amino-2-hydroxy-4-phenylbutanoyl]-L-prolyl-L-prolyl-Lalaninamide] here?
**A.** 600 µM
